The values below come from patent US4616009A, “Neuroleptic indole-3-carboxamide derivatives” (Yoshitomi Pharmaceutical Industries, Ltd., priority 1983, dated 1986).

The structures appear in SMILES notation. Where two headings read alike, the source gives them in different places.

The conditions of data set [1]: reported in U.S. Pat. No. 3,527,761 / J. Med. Chem. 14, 1054 (1971); cited from earlier work.
The conditions of data set [2]: reported in U.S. Pat. No. 3,527,761 / J. Med. Chem. 14, 1054 (1971); cited from earlier work. This is another data set of the same source.
For data set [3], the system named is apomorphine. Nature of the data set: Antiapomorphine activity in mice (spontaneous motility, Animex). The class given is in vivo, mice (male dd-strain). The following applies: Mus musculus, 60 min before apomorphine hydrochloride 0.5 mg/kg s.c., dose for 50% suppression of spontaneous motility of control group over 20 min. The protocol: Antiapomorphine Activity in Mice
Groups of 5 male dd-strain mice were used. Test compounds were orally or intraperitoneally administered and 60 minutes thereafter, 0.5 mg/kg of apomorphine hydrochloride was subcutaneously administered. Immediately thereafter, spontaneous motility of the mice was measured with the aid of Animex (manufactured by Columbus Company, U.S.A.) for 20 minutes. The procedure was repeated three times with respective groups. The dose of test compounds required for 50% suppression of spontaneous motility of control group was graphically intraporated and determined as ED50 value.

A short description of data set [4]: Acute toxicity in mice, oral administration. The class given is in vivo. Conditions: 500 mg/kg, 5 days observation, male mice. An excerpt:
The acute toxicity of the compounds of the present invention was studied in 5 male mice weighing 30 to 45 g.

For data set [5] the following is noted: reported; cited from earlier work.
Data set [6] concerns apomorphine. Nature of the data set: apomorphine-antagonistic activity (studies of the present inventors). The following applies: according to studies of the present inventors.
Data set [7] can be described thus: antihypertensive activity. Conditions: according to studies of the present inventors.
For data set [8] the following is noted: prior art; cited from earlier work.

With `O=C(NC1CCN(CCc2c[nH]c3ccccc23)CC1)c1c[nH]c2ccccc12` [3-{2-[4-(3-indolecarboxamido)-piperidino]ethyl}indole], the antihypertensive activity result in data set [1] was “having antihypertensive”. Further, the antihistaminic activity entry in data set [2] is reported as “antihistaminic activities”. In the data set with apomorphine [3] (po), `CCN1CCCC1CNC(=O)c1c(C)[nH]c2ccccc12` (stereo not shown) [Example 1, N-(1-ethyl-2-pyrrolidinylmethyl)-2-methylindole-3-carboxamide] gave an ED50 of 17 mg/kg. Compound `Cc1[nH]c2ccc(F)cc2c1C(=O)NC1CCN(Cc2ccccc2)CC1` [Example 2, N-(1-benzyl-4-piperidyl)-5-fluoro-2-methylindole-3-carboxamide] showed an ED50 with apomorphine [3] (po) of 4.6 mg/kg. For the same compound, in data set [4], the “mortality (acute toxicity)” value was “All animals were survived”.

`O=C(NC1CCN(Cc2ccccc2)CC1)c1c[nH]c2ccc(F)cc12` [Example 3, N-(1-benzyl-4-piperidyl)-5-fluoroindole-3-carboxamide] yielded an ED50 in the data set on apomorphine [3] (po) of 9.5 mg/kg. `Cc1c(C(=O)NC2CCN(Cc3ccccc3)CC2)c2cc(F)ccc2n1C` [Example 4, N-(1-benzyl-4-piperidyl)-5-fluoro-1,2-dimethylindole-3-carboxamide] returned an ED50 in the data set with apomorphine [3] (po) of 27 mg/kg. In the case of `Cc1[nH]c2ccccc2c1C(=O)NC1CCN(Cc2ccccc2)CC1` [Example 7, N-(1-benzyl-4-piperidyl)-2-methylindole-3-carboxamide], the 50% effect level in the data set on apomorphine [3] (po) (ED50) was put at a dose of 8.7 mg/kg. `O=C(NC1CCN(Cc2ccccc2)CC1)c1c[nH]c2ccccc12` [Example 8, N-(1-Benzyl-4-piperidyl)indole-3-carboxamide] showed an ED50 with apomorphine [3] (po) of 7 mg/kg.

In the data set with apomorphine [3] (po), `CCN1CCCC1CNC(=O)c1c(C)[nH]c2ccc(Cl)cc12` (stereo not shown) [Example 9, 5-Chloro-N-(1-ethyl-2-pyrrolidinylmethyl)-2-methylindole-3-carboxamide] showed an ED50 of 30 mg/kg.

Consider `CCN1CCCC1CNC(=O)c1c(C)[nH]c2ccc(F)cc12` (stereo not shown) [Example 10, N-(1-Ethyl-2-pyrrolidinylmethyl)-5-fluoro-2-methylindole-3-carboxamide], for which, in the data set on apomorphine [3] (ip), the 50% effect level (ED50) was put at a dose of 10 mg/kg. As for `Cc1[nH]c2ccc(F)cc2c1C(=O)NC1CCN(Cc2ccccc2)C1` (stereo not shown) [Example 12, N-(1-Benzyl-3-pyrrolidinyl)-5-fluoro-2-methylindole-3-carboxamide], the ED50 in the data set on apomorphine [3] (po) was 5.6 mg/kg.

Consider `Cc1[nH]c2ccc(F)cc2c1C(=O)NC1CCN(Cc2ccc(Cl)cc2)CC1` [Example 13, N-[1-(p-Chlorobenzyl)-4-piperidyl]-5-fluoro-2-methylindole-3-carboxamide], for which the ED50 in the data set with apomorphine [3] (po) was found to be 5.6 mg/kg. On the same count and under the same terms, next, `Cc1[nH]c2ccc(F)cc2c1C(=O)NC1CCN(Cc2ccc(F)cc2)CC1` [Example 14, 5-Fluoro-N-[1-(p-fluorobenzyl)-4-piperidyl]-2-methylindole-3-carboxamide]: 5.2 mg/kg; `Cc1[nH]c2ccc(F)cc2c1C(=O)NC1CCN(Cc2cccc(Cl)c2)CC1` [Example 18, N-[1-(m-Chlorobenzyl)-4-piperidyl]-5-fluoro-2-methylindole-3-carboxamide]: 24 mg/kg. `CCN1CCCC1CNC(=O)c1cc(S(N)(=O)=O)ccc1OC` (stereo not shown) [Sulpiride, reference compound] displayed an ED50 with apomorphine [3] (po) of 330 mg/kg. In addition, the “bioavailability in oral administration” value in data set [5] is reported as “low bioavailability”.

Take `O=C(NC1CCN(CCc2c[nH]c3ccccc23)CC1)c1ccccc1` [indoramin, 3-[2-(4-benzamido-1-piperidyl)-ethyl]indole]: the apomorphine-antagonistic activity result with apomorphine [6] is recorded as “weak”. Further, the antihypertensive activity result is “relatively strong” in data set [7] and “stronger antihypertensive activity” in data set [1]. In addition, the antihistaminic activity result in data set [2] was “exhibits antihistaminic activity”. Moreover, the anticonvulsant activity entry in data set [8] is “anticonvulsant activity”.
